Consider seven molecules from US20180085359A1, “USE OF CHELATORS OF DIVALENT CATIONS TO PROMOTE NERVE REGENERATION” (CHILDREN'S MEDICAL CENTER CORPORATION, priority 2012, published 2018).

A short description of data set [1]: Hydrolytic stability of the sulfonate ester at pH 7. The format is physicochemical.
For data set [2], the system named is porcine liver esterase (PLE). Kind of data set: Enzymatic cleavage by esterase followed by UV/vis. The format is in vitro ADME. The settings on record: 25% MeOH/PBS at 37° C., 0.2 unit/ml porcine liver esterase. The procedure:
A) change of UV/vis spectrum of 3 in 25% MeOH/PBS upon addition of esterase at 37° C. The final spectrum matched the spectrum of ZX1 (B). A) Insert: the decrease of absorbance at 340 nm.
The AcOTFMB sulfonate ester, 1, was synthesized with 88% yield by esterifying 2-nitrobenzenesulfonyl chloride with the corresponding alcohol in the presence of DABCO as the base. Reduction of the nitro functionality with hydrogen afforded the aniline, 2, with 99% yield. The dipicolylamine (DPA) zinc-binding unit can be installed to the aniline via reduction amination to afford the target molecule, 3, in 10% yield (Scheme 1). […] In 25% MeOH/PBS at 37° C., upon introduction of 0.2 unit/ml porcine liver esterase (PLE), The UV/vis spectrum gradually changes with an isosbestic point of 317 nm, to produce a peak at 307 nm (FIG. 10).

Data set [3] has as its system retinal ganglion cells (RGC). The data set is described as follows: RGC survival after optic nerve crush, βIII-tubulin-stained retinal whole mounts. Type of data set: in vivo, mouse. The settings on record: for RGC survival when chelator given only on Day 3: single administration 3 d after ONC. The procedure: (§1) Studies were performed at Children's Hospital Boston with the approval of the Institutional Animal Care and Use Committee. Experiments used male mice of the strain C57BL/6J (Jackson lab, Bar Harbor, Me.), at 8- to 10-week-old age.
(§2) Adult mice were anesthetized with a combination of ketamine and xylazine given intraperitoneally. A conjunctival incision was made over the dorsal aspect of one eye, which is then gently rotated downward in the orbit. The orbital muscles were slightly separated to expose the optic nerve at its exit from the globe, which were then crushed for 5 seconds with jewelers' forceps (Dumont number 5) near the back of the eye (within 0.5 mm). […] Same volume PBS was injected intravitreally in control group.
(§3) Mice were sacrificed with an overdose of anesthesia 14 d after optic nerve injury and were perfused with saline and 4% paraformaldehyde (PFA). […]. Optic nerves and eyes were dissected and postfixed in PFA. Nerves were impregnated with 30% sucrose, embedded in OCT Tissue Tek Medium (Sakura Finetek), frozen, cut in the longitudinal plane at 14 μm, and mounted on coated slides. Regenerating axons were visualized by staining with a sheep antibody to GAP-43 followed by a fluorescently labeled secondary antibody.
Images of eight preselected areas, 2 mm from the optic disc were captured under fluorescent illumination (400×; E800; Nikon). βIII-Tubulin-positive cells were counted using NIH ImageJ software (Wayne Rasband, National Institutes of Health, Bethesda, Md.). Cell densities were averaged across all eight areas.

A further data set relates to Adult rat RGCs. The data set is described as follows: Axon outgrowth in cultured adult RGCs in defined media. Conditions: ZX1 10 μM; with or without forskolin, mannose, oncomodulin. The format is cell-based.
In data set [4] the test system is free Zn^2+ in the inner plexiform layer of the retina. Kind of data set: Free Zn2+ in the retina after optic nerve injury by autometallography (AMG). The format is in vivo, mouse. The settings on record: chelator injected intraocularly. The procedure: A) and B) Mice underwent unilateral optic nerve injury and received i.p. injections of sodium selenite immediately afterwards. Levels of free Zn^2+ increase within 6 hours. C) and D) TPEN (100 μM injections starting 1 day before nerve injury) suppresses the increase in free Zn^2+. The temporal resolution of this method is limited by the time delay for TPEN to reach the retina.
We investigated the hypothesis that the liberation of free Zn2+ plays a role in RGC death after axonal injury.
To investigate the possible relationship between ionic Zn^2+ and nerve regeneration, we used autometallography (AMG) to examine changes in the retina, injecting Na2SeO3 i.p. at various times after ONC and euthanizing mice 6 hr later. We detected a dramatic increase in labeling in the IPL, the layer of the retina that contains synaptic inputs from retinal interneurons onto RGC dendrites, especially in 2 sublayers (FIG. 11B). IPL labeling in-creased up to 24 hr but declined by 3 days, at which time labeling appeared in RGCs themselves. […] This interpretation is supported by studies using a membrane-permeable fluorescent Zn^2+ sensor, Zinpyr1, which has a strong preference for Zn^2+ over Ca^2+ (41). […] As with AMG, Zinpyr1 labeling was elevated in RGCs but not IPL at 3 days (FIG. 11K). The Zn^2+ transporter ZnT3 is also localized in the IPL (FIG. 11L).

The subject of data set [5] is RGC axons in the optic nerve. Kind of data set: Optic nerve axon regeneration after optic nerve crush, GAP-43-positive axons distal to the crush site. Type of data set: in vivo, mouse. Conditions: for maximally effective concentration for axon regeneration (unit not given): FIG. 4 / FIG. 7, 2 weeks after optic nerve injury, multiple injections; for added effect of pre-treatment (additional injection one day before ONC) on axon regeneration: compared with 2 post-injury injections; for most effective concentration for axon regeneration: intraocular injection immediately after optic nerve crush and 4 days later; for most effective concentration for axon regeneration / effect on axon regeneration: evaluated at 2 weeks; for effect on axon regeneration: intraocular injection, days 0 and 4 after ONC; for axon regeneration in combination with pten gene deletion: pten deleted in RGCs by AAV2-Cre, 2 weeks. The procedure: as §1, §2, §3
Axon growth was quantified by counting the number of GAP-43-positive axons extending 0.5, 1, 1.5 and 2 mm from the end of the crush site in at least eight sections per case. The cross-sectional width of the nerve was measured at the point at which the counts were taken and was used to calculate the number of axons per millimeter of nerve width. The number of axons per millimeter was then averaged over the number of sections. Σad, the total number of axons extending distance din a nerve having a radius of r, was estimated by summing over all sections having a thickness t (14 μm):
Σad=πr^2×[average axons/mm]/t

For another data set, the system named is Bcl-xL. Kind of data set: Bcl-xL immunostaining of retinal cross-sections 5 days after optic nerve crush. Type of data set: in vivo, mouse. The text has this:
(§4) FIG. 6A-FIG. 6C show results from experiments that indicate Chelation of free Zn^2+ suppresses molecular changes that lead to RGC apoptosis. A) Cross-sections through the normal retina or 5 days after optic nerve crush, with or without treatment with the Zn^2+ chelator TPEN. Sections were immunostained to detect the anti-apoptotic protein Bcl-xL or the pro-apoptotic enzymes Caspase-3 or -8. B) C) Quantitation of cellular changes (avg. number of stained cells per section). Optic nerve injury causes a marked elevation of Caspases-3 and -8. […] BclxL levels have not been quantified yet, but appear to decrease with optic nerve injury and to be partially preserved by TPEN treatment. gcl: ganglion cell layer; ipl, inner plexiform layer; ink inner nuclear layer.
(§5) Retinal cross-sections from normal mice or 5 days after optic nerve crush, with or without TPEN treatment. Sections were immunostained for the anti-apoptotic protein Bcl-xL or the pro-apoptotic enzymes Caspase-3 or -8. Optic nerve injury causes a marked elevation of Caspases-3 and -8 and a decline in Bcl-xL. TPEN diminishes the expression of Caspases-3 and -8 and attenuates the decline in Bcl-xL gcl: ganglion cell layer; ipl, inner plexiform layer; inl, inner nuclear layer.

In a further data set the test system is Caspase-3. The data set is described as follows: Caspase-3 immunostaining of retinal cross-sections 5 days after optic nerve crush. The format is in vivo, mouse.
From the text: as §4, §5

[6] abbreviates: injected into the eye just after ONC and again after 4 days.

Several values for one entry are separate records, joined by “and”; a condition that tells them apart may be missing. Equal values may be shown once. Entries after “also recorded” stand apart in the source; their conditions may differ.

Take `CC(=O)Oc1ccc(C(OS(=O)(=O)c2ccccc2NCCN(Cc2ccccn2)Cc2ccccn2)C(F)(F)F)cc1` (stereo not shown) [compound 3, 4-(1-(((2-((2-(bis(pyridin-2-ylmethyl)amino)ethyl)amino)phenyl)sulfonyl)oxy)-2,2,2-trifluoroethyl)phenyl acetate]: the stability toward hydrolysis entry in data set [1] is “stable at pH 7 for several days without being hydrolyzed”. Further, in data set [2], the “susceptibility to esterase cleavage” value was “susceptible to enzymatic cleavage to afford ZX1”.
`O=S(=O)(O)c1ccccc1NCCN(Cc1ccccn1)Cc1ccccn1` [ZX1]: the “dose dependence of RGC survival” value in data set [3] (ZX1 between 10 μM and 10 mM) is recorded as “roughly equally effective in promoting cell survival; also recorded: equally protective against RGC death at all concentrations from 10 μM up”. In addition, the “effect on RGC survival 2 weeks after ONC” value in data set [3] (setting [6]) was “just as effective as TPEN; also recorded: doubled”. Also, the “RGC survival when chelator given only on Day 3” value in data set [3] was “less effective”. The “axon outgrowth of cultured RGCs” value with Adult rat RGCs is “no effect”. Besides, the “free Zn2+ level / AMG labeling in the retina after optic nerve injury” value in data set [4] was “blocked injury-induced labeling in the IPL”. For the same molecule, the “GAP-43-positive axons at 0.5 mm from crush site” value in data set [5] (2 weeks after crush, ZX1 10 μM˜10 mM injection, crush alone 7.05±2.49 axons) is on record as “up to 164 axons”. In addition, in data set [5], the maximally effective concentration for axon regeneration (unit not given) is 30 µM, the “added effect of pre-treatment (additional injection one day before ONC) on axon regeneration” value is “augmented the amount of regeneration”, the “most effective concentration for axon regeneration” value turned out to be 100 µM and the “effect on axon regeneration” value is “induces extensive regeneration; also recorded: similarly effective in inducing regeneration”. For the same molecule, in data set [5], the “axon regeneration in combination with pten gene deletion” value is recorded as “double”. In addition, in data set [5] (long-term, FIG. 18), the “axon regeneration when added to Zymosan + cAMP alone” value is reported as “increases the effect of Zymosan+ cAMP alone”. Further, in data set [5] (long-term, examined 12 weeks after chelator), the “axon regeneration when added to Zymosan, elevation of cAMP and pten gene deletion” value is “nearly doubles the amount of regeneration seen at short distances from the injury site”.
For `CC[N+](CC)(CC)CC` [TEA, tetraethylammonium], the “RGC survival after optic nerve injury with K+ channel blockers” value (shortened to “RGC survival after optic nerve injury”) in data set [3] (FIG. 16) is “blocks RGC death after ONC to the same extent as TPEN; also recorded: strong effect”. Moreover, in data set [3] (mouse, in vivo), the “concentration affording strong protection of RGCs” value is < 100 µM and 100 µM.
On to `O=C(O)CN(CCN(CC(=O)O)CC(=O)O)CC(=O)O.[Ca]` [CaEDTA], for which the “effect on RGC survival 2 weeks after ONC” value is “doubled” in data set [3] (setting [6]); “promotes cell survival” in data set [3] (injected into the eye just after ONC and again after 4 days, listed as Ca-EDTA). Also, the “effect on axon regeneration” value in data set [5] is “led to axon outgrowth”.
With `c1ccc(CN(CCN(Cc2ccccn2)Cc2ccccn2)Cc2ccccn2)nc1` [TPEN, N,N,N′,N′-tetrakis(2-pyridylmethyl)ethylenediamine], the “injury-induced decrease in Bcl-xL” value with Bcl-xL is “suppressed; also recorded: partially blocks Bcl-xL loss after ONC”. In addition, the “added effect of pre-treatment (additional injection one day before ONC) on RGC survival” value in data set [3] (compared with injections on day 0 and day 4 only) is on record as “not augmented; also recorded: did not enhance RGC survival”. Also, the “effect on RGC survival 2 weeks after ONC” value in data set [3] (setting [6]) is listed as “protected RGCs”. Moreover, the “most effective concentration for RGC survival” value in data set [3] (intraocular, day 0 and day 4 after optic nerve crush, survival at 2 weeks) was found to be 100 µM. Also, the “RGC survival in combination with pten gene deletion” value in data set [3] (pten deleted in RGCs by AAV2-Cre, 2 weeks) is on record as “no additional effect”. The “RGC survival when chelator given only on Day 3” value in data set [3] is reported as “fully protective”. The “long-lasting RGC survival” value in data set [3] (up to 12 wk after ONC) is on record as “enduring protection”. Further, the “injury-induced increase in Caspase-3” value with Caspase-3 is “suppressed; also recorded: diminishes the number of Caspase-3 positive cells”. In data set [4], the “free Zn2+ level / AMG labeling in the retina after optic nerve injury” value is recorded as “diminishes Zn2+ levels; also recorded: blocked injury-induced labeling in the IPL”. For the same molecule, the “maximally effective concentration for axon regeneration (unit not given)” value in data set [5] (in µM) is given as 100-500. In data set [5], the “added effect of pre-treatment (additional injection one day before ONC) on axon regeneration” value was “markedly increased the number of regenerating axons; also recorded: augmented the amount of regeneration”, the “most effective concentration for axon regeneration” value came to 100 µM, the “effect on axon regeneration” value is on record as “led to axon outgrowth” and the “axon regeneration in combination with pten gene deletion” value was “much greater effects on regeneration than either one alone; also recorded: double”. In addition, the “axon regeneration when injected on D3” value in data set [5] (single administration 3 d after ONC) is listed as “did not promote regeneration”.
In the case of `O=C(O)CN(CCN(CC(=O)O)CC(=O)O)CC(=O)O.[Zn]` [ZnEDTA], the “effect on RGC survival 2 weeks after ONC” value in data set [3] (mouse, in vivo) was “not”. In addition, in data set [5], the “effect on axon regeneration” value was “not”.
“Agitoxin-2: blocker of Shaker family K+ channels Kv1.1 and 1.3”: in data set [3] (FIG. 16), the “RGC survival after optic nerve injury” value was “only a small effect on RGC survival” and the “RGC survival in combination with TPEN” value was “does not augment the effect of TPEN”. In data set [3] (FIG. 16, listed as AgTx2), the “RGC survival after optic nerve injury” value is reported as “slightly improves RGC survival”.
